Where a name gives a salt, the structure may show the parent alone. Starred links: 1 amine or outer side, 2 acyl side, 3 side chain; linkers in the order of their positions; H or OH if unused. Positions of bridges follow the written chain, without caps; N, C: chain ends. Non-standard residues stand in square brackets, D forms with d. Residues, ends and D or L forms follow the SMILES beside them. Groups on a side chain read outwards from the residue. *: point of attachment. X16 = C[N+](C)(C)Cc1cn(-c2ccc(C[C@H](N[*:1])C(=O)[*:2])cc2)nn1; Me3N+(CH2)2O(CH2)2O(CH2)2CO = C[N+](C)(C)CCOCCOCCC(=O)*; PEG12 = NCCOCCOCCOCCOCCOCCOCCOCCOCCOCCOCCOCCOCCC(=O)O; Trp(7-Me) = Cc1cccc2c(C[C@H](N)C(=O)O)c[nH]c12; d(hLys(Me3)) = C[N+](C)(C)CCCCC[C@@H](N)C(=O)O; X1 = CN(CC[C@H](N[*:1])C(=O)[*:2])[*:3]; γGlu = O=C(O)[C@H](CCC(=O)[*:2])N[*:1]; 2Nal = N[C@@H](Cc1ccc2ccccc2c1)C(=O)O; AEF = NCCOc1ccc(C[C@H](N)C(=O)O)cc1; 3Pal = N[C@@H](Cc1cccnc1)C(=O)O; Myristoyl = CCCCCCCCCCCCCC(=O)*; Lys(Me) = CNCCCC[C@H](N)C(=O)O; X7 = COCCOCCOCCOCCOCCOCCC(=O)*; Pen = CC(C)(S)[C@H](N)C(=O)O; Thp = NC1(C(=O)O)CCOCC1; PEG2 = NCCOCCOCCC(=O)O; X3 = C[N+](C)(C)CCCCC*; AEEA = NCCOCCOCC(=O)O; Tfa = O=C(C(F)(F)F)*; Sar = CNCC(=O)O; X58 = NCCCCC*

This series in a line: Exposed Polar Surface Area (EPSA). In kind it is physicochemical. Particulars: SFC on Chirex 3014 column; sample 1 mM DMSO stock; read-out: EPSA. In outline:
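SFC retention on a Chirex 3014 (S-valine/(R)-1-(α-naphthyl)ethylamine) column at 35 °C, 4 mL/min, 14 MPa outlet, 5–60% methanol/20 mM ammonium formate gradient in CO2. Retention times converted to EPSA (Å²) via linear calibration with 8 standards; samples from 1 mM DMSO stock, run in duplicate.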
Turning to `CCCCCCCCCCCCCC(=O)N[C@@H](CCC(=O)NCCOCCOCC(=O)NCCOCCOCC(=O)NCCCC[C@@H]1NC(=O)[C@@H](NC(=O)[C@@H](CCCCC[N+](C)(C)C)NC(=O)COCCOCCNC(=O)COCCOCCNC(=O)CC[C@H](NC(=O)CCCCCCCCCCCCC)C(=O)O)C(C)(C)SSC(C)(C)[C@@H](C(=O)N[C@@H](Cc2ccc(OCCCCC[N+](C)(C)C)cc2)C(=O)N[C@@H](Cc2ccc3ccccc3c2)C(=O)NC2(C(=O)N[C@@H](CCCCN(C)C(C)=O)C(=O)N[C@@H](CC(N)=O)C(=O)N[C@@H](Cc3cccnc3)C(=O)N(C)CC(=O)N(C)C)CCOCC2)NC(=O)[C@H](CCCCN(C)C(C)=O)NC(=O)[C@H](Cc2c[nH]c3c(C)cccc23)NC(=O)[C@H]([C@@H](C)O)NC1=O)C(=O)O` [compound 374, C14gEPEG2PEG2CO-hk(Me)3-Pen(3)-K(PEG2PEG2gEC14)-T-7MeW-K(NMeAc)-Pen(3)-TMAPF-2Nal-THP-K(NMeAc)-N-3Pya-Sar-CON(Me)2] ({Myristoyl-γGlu-AEEA-AEEA}-[d(hLys(Me3))][Pen]K([AEEA-AEEA-γGlu-Myristoyl])T[Trp(7-Me)][Lys(Me)](Ac)[Pen]Y(X3)[2Nal][Thp][Lys(Me)](Ac)N[3Pal][Sar]-NMe2; disulfide 2-7), the EPSA was 170 A^2. The same measure for `CC(=O)N(C)CCCC[C@@H]1NC(=O)[C@H](Cc2c[nH]c3c(C)cccc23)NC(=O)[C@H]([C@@H](C)O)NC(=O)[C@H](CC(=O)N(C)C)NC(=O)[C@@H](NC(=O)CCOCCOCCN)C(C)(C)SSC(C)(C)[C@@H](C(=O)N[C@@H](Cc2ccc(OCCCCCN)cc2)C(=O)N[C@@H](Cc2ccc3ccccc3c2)C(=O)NC2(C(=O)N[C@@H](CCCCN(C)C(C)=O)C(=O)N[C@@H](CC(N)=O)C(=O)N[C@@H](Cc3cccnc3)C(=O)N(C)CC(=O)N(C)C)CCOCC2)NC1=O` [compound 529, cPEG3AmCO-Pen(3)-N(N(Me)2)-T-7MeW-K(NMeAc)-Pen(3)-APF-2Nal-THP-K(NMeAc)-N-3Pya-Sar-CON(Me)2] (H-[PEG2][Pen]D(NMe2)T[Trp(7-Me)][Lys(Me)](Ac)[Pen]Y(X58)[2Nal][Thp][Lys(Me)](Ac)N[3Pal][Sar]-NMe2; disulfide 2-7): 161 A^2; for `CC(=O)NCCCC[C@@H]1NC(=O)[C@H](Cc2c[nH]c3c(C)cccc23)NC(=O)[C@H]([C@@H](C)O)NC(=O)[C@H](CC(N)=O)NC(=O)[C@@H](NC(=O)C(F)(F)F)C(C)(C)SSC(C)(C)[C@@H](C(=O)N[C@@H](Cc2ccc(OCCN)cc2)C(=O)N[C@@H](Cc2ccc3ccccc3c2)C(=O)NC2(C(=O)N[C@@H](CCCCNC(C)=O)C(=O)N[C@@H](CC(N)=O)C(=O)N[C@@H](Cc3cccnc3)C(=O)N(C)CC(=O)N(C)C)CCOCC2)NC1=O` [compound 74] (Tfa-[Pen]NT[Trp(7-Me)]K(Ac)[Pen][AEF][2Nal][Thp]K(Ac)N[3Pal][Sar]-NMe2; disulfide 1-6 (inferred)): 154 A^2. Take `CC(=O)NCCCC[C@@H]1NC(=O)[C@H](Cc2c[nH]c3c(C)cccc23)NC(=O)[C@H]([C@@H](C)O)NC(=O)[C@H](CC(N)=O)NC(=O)[C@@H](NC(=O)[C@@H](CCCCNC(=O)CCOCCOCCOCCOCCOCCOCCOCCOCCOCCOCCOCCOCCNC(C)=O)NC(C)=O)C(C)(C)SSC(C)(C)[C@@H](C(=O)N[C@@H](Cc2ccc(OCCN)cc2)C(=O)N[C@@H](Cc2ccc3ccccc3c2)C(=O)NC2(C(=O)N[C@@H](CCCCNC(C)=O)C(=O)N[C@@H](CC(N)=O)C(=O)N[C@@H](Cc3cccnc3)C(=O)N(C)CC(N)=O)CCOCC2)NC1=O` [compound 40] (Ac-[dK]([PEG12-Ac])[Pen]NT[Trp(7-Me)]K(Ac)[Pen][AEF][2Nal][Thp]K(Ac)N[3Pal][Sar]-NH2; disulfide 2-7): the EPSA is 156 A^2. For `CC(=O)NCCCC[C@@H]1NC(=O)[C@H](Cc2c[nH]c3c(C)cccc23)NC(=O)[C@H]([C@@H](C)O)NC(=O)[C@H](CC(N)=O)NC(=O)[C@@H](NC(C)=O)C(C)(C)SSC(C)(C)[C@@H](C(=O)N[C@@H](Cc2ccc(-n3cc(C[N+](C)(C)C)nn3)cc2)C(=O)N[C@@H](Cc2ccc3ccccc3c2)C(=O)NC2(C(=O)N[C@@H](CCC(=O)O)C(=O)N[C@@H](CC(N)=O)C(=O)N[C@@H](Cc3cccnc3)C(=O)N(C)CC(N)=O)CCOCC2)NC1=O` [compound 441] (Ac-[Pen]NT[Trp(7-Me)]K(Ac)[Pen][X16][2Nal][Thp]EN[3Pal][Sar]-NH2; disulfide 1-6 (inferred)) the value was 176 A^2. The same measure for `CC(=O)N(C)CCCC[C@@H]1NC(=O)[C@H](Cc2c[nH]c3c(C)cccc23)NC(=O)[C@H]([C@@H](C)O)NC(=O)[C@H](CC(=O)N(C)C)NC(=O)[C@@H](NC(=O)CCOCCOCC[N+](C)(C)C)C(C)(C)SSC(C)(C)[C@@H](C(=O)N[C@@H](Cc2ccc(OCCCCC[N+](C)(C)C)cc2)C(=O)N[C@@H](Cc2ccc3ccccc3c2)C(=O)NC2(C(=O)N[C@@H](C)C(=O)N[C@@H](CC(N)=O)C(=O)N[C@@H](Cc3cccnc3)C(=O)N(C)CC(=O)N(C)C)CCOCC2)NC1=O` [compound 316, cPEG3aCO-Pen(3)-N(N(Me)2)-T-7MeW-K(NMeAc)-Pen(3)-TMAPF-2Nal-THP-A-N-3Pya-Sar-CON(Me)2] ({Me3N+(CH2)2O(CH2)2O(CH2)2CO}-[Pen]D(NMe2)T[Trp(7-Me)][Lys(Me)](Ac)[Pen]Y(X3)[2Nal][Thp]AN[3Pal][Sar]-NMe2; disulfide 1-6): 154 A^2. The same measure for `CC(=O)NCCCC[C@@H]1NC(=O)[C@H](Cc2c[nH]c3c(C)cccc23)NC(=O)[C@H]([C@@H](C)O)NC(=O)[C@H](CC(N)=O)NC(=O)[C@@H](NC(C)=O)C(C)(C)SSC(C)(C)[C@@H](C(=O)N[C@@H](Cc2ccc(OCCN)cc2)C(=O)N[C@@H](Cc2ccc3ccccc3c2)C(=O)NC2(C(=O)N[C@@H](CCCCNC(=O)CCOCCOCC[N+](C)(C)C)C(=O)N[C@@H](CC(N)=O)C(=O)N[C@@H](Cc3cccnc3)C(=O)N(C)CC(N)=O)CCOCC2)NC1=O` [compound 86] (Ac-[Pen]NT[Trp(7-Me)]K(Ac)[Pen][AEF][2Nal][Thp]K(Me3N+(CH2)2O(CH2)2O(CH2)2CO)N[3Pal][Sar]-NH2; disulfide 1-6): 150 A^2; for `CC(=O)NCCCC[C@@H]1NC(=O)[C@H](Cc2c[nH]c3c(C)cccc23)NC(=O)[C@H]([C@@H](C)O)NC(=O)[C@H](CC(N)=O)NC(=O)[C@@H](NC(=O)C(F)(F)F)C(C)(C)SSC(C)(C)[C@@H](C(=O)N[C@@H](Cc2ccc(OCCN)cc2)C(=O)N[C@@H](Cc2ccc3ccccc3c2)C(=O)NC2(C(=O)N[C@@H](CCCCNC(C)=O)C(=O)N[C@@H](CC(N)=O)C(=O)N[C@@H](Cc3cccnc3)C(=O)N(C)CC(N)=O)CCOCC2)NC1=O` [compound 49] (Tfa-[Pen]NT[Trp(7-Me)]K(Ac)[Pen][AEF][2Nal][Thp]K(Ac)N[3Pal][Sar]-NH2; disulfide 1-6): 164 A^2; for `COCCOCCOCCOCCOCCOCCC(=O)N(C)CC[C@@H]1NC(=O)[C@H](Cc2c[nH]c3c(C)cccc23)NC(=O)[C@H]([C@@H](C)O)NC(=O)[C@H](CC(=O)N(C)C)NC(=O)[C@@H](NC(C)=O)C(C)(C)SSC(C)(C)[C@@H](C(=O)N[C@@H](Cc2ccc(OCCN)cc2)C(=O)N[C@@H](Cc2ccc3ccccc3c2)C(=O)NC2(C(=O)N[C@@H](CCC(=O)O)C(=O)N[C@@H](CC(N)=O)C(=O)N[C@@H](Cc3cccnc3)C(=O)N(C)CC(=O)N(C)C)CCOCC2)NC1=O` [compound 158, MeCO-Pen(3)-N(N(Me)2)-T-7MeW-Dab(NMeCOmPEG6)-Pen(3)-AEF-2Nal-THP-E-N-3Pya-Sar-CON(Me)2] (Ac-[Pen]D(NMe2)T[Trp(7-Me)][X1](X7)[Pen][AEF][2Nal][Thp]EN[3Pal][Sar]-NMe2; disulfide 1-6): 160 A^2. `CCCCCCCCCCCC(=O)N[C@@H](CCC(=O)NCCOCCOCC(=O)NCCOCCOCC(=O)NC(COCCOCC[N+](C)(C)C)C(=O)N[C@@H]1C(=O)N[C@@H](CC(=O)N(C)C)C(=O)N[C@@H]([C@@H](C)O)C(=O)N[C@@H](Cc2c[nH]c3c(C)cccc23)C(=O)N[C@@H](CCCCN(C)C(C)=O)C(=O)N[C@H](C(=O)N[C@@H](Cc2ccc(OCCOCCOCC[N+](C)(C)C)cc2)C(=O)N[C@@H](Cc2ccc3ccccc3c2)C(=O)NC2(C(=O)N[C@@H](CCCCN(C)C(C)=O)C(=O)N[C@@H](CC(N)=O)C(=O)N[C@@H](Cc3cccnc3)C(=O)N(C)CC(=O)N(C)C)CCOCC2)C(C)(C)SSC1(C)C)C(=O)O` (relative stereo) [compound 366, C12gEPEG2PEG2CO-APEG2Ser(S*)-Pen(3)-N(N(Me)2)-T-7MeW-K(NMeAc)-Pen(3)-APEG3F-2Nal-THP-K(NMeAc)-N-3Pya-Sar-CON(Me)2]: the EPSA was 162 A^2.

Source of the values: US20260022143A1, “Cyclic Peptide Inhibitors of IL-23” (JANSSEN PHARMACEUTICA NV, priority 2022, published 2026).
